Patent publication US20060142348A1, “Aryl sulfonamide peri-substituted bicyclics for occlusive artery disease” (deCODE Chemistry, Inc., priority 2004, published 2006)

What follows are molecules tested against T1, prostanoid EP3 receptors (Homo sapiens, UniProt P43115) (assay: binding on prostanoid EP3 receptors (method of Abramovitz et al.)). Details: read-out: Activity (EP3 receptor binding IC50).
T1 sequence (P43115 1-365 isoform P43115-3): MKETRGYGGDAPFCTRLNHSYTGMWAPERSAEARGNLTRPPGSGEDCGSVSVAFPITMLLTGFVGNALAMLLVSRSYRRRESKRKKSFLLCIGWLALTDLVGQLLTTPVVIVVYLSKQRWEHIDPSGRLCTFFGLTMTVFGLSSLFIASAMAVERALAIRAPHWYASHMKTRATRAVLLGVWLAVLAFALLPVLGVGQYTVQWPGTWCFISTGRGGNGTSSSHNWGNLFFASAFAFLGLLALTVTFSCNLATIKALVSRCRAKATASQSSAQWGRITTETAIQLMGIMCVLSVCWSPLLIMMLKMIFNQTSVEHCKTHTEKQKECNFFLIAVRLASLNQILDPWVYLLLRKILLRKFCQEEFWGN
Protocol: The compounds of the invention may be assayed for their binding on prostanoid EP3 receptors according to the method of Abramovitz et al. [Bioch. Biophys. Actas 1473, 285-293 (2000)]. All of the examples in the tables below have been synthesized, characterized and tested for EP3 receptor binding.
The compounds of the invention were assayed for their binding on prostanoid EP3 receptors according to the method of Abramovitz et al. [Bioch. Biophys. Acta, 1473, 285-293 (2000)]. […] Compounds with IC50<1 μM are shown as +++; compounds with IC50<1-10 μM are shown as ++; and compounds with IC50>10 μM are shown as +.

Row | IC50 | SMILES
1 | 1 to 10 µM | Cn1cc(-c2csc(NS(=O)(=O)c3cc(Cl)c(Cl)s3)n2)c2c(Oc3ccc4ccccc4c3)cccc21 [Compound B43, 4,5-Dichloro-thiophene-2-sulfonic acid {4-[1-methyl-4-(naphthalen-2-yloxy)-1H-indol-3-yl]-thiazol-2-yl}-amide]
2 | < 1 µM | Cc1cn(Cc2ccc3ccccc3c2)c2c(-c3cc(NS(=O)(=O)c4cc(F)c(F)cc4F)no3)cc(F)cc12 [Compound B39, 2,4,5-Trifluoro-N-[5-(5-fluoro-3-methyl-1-naphthalen-2-ylmethyl-1H-indol-7-yl)-isoxazol-3-yl]-benzenesulfonamide]
3 | 1 to 10 µM | Cc1cn(Cc2ccc(Cl)cc2Cl)c2c(-c3nnc(NC(=O)c4ccc(F)cc4F)o3)cc(F)cc12 [Compound B27, N-{5-[1-(2,4-Dichloro-benzyl)-5-fluoro-3-methyl-1H-indol-7-yl]-[1,3,4]oxadiazol-2-yl}-2,4-difluoro-benzamide]
4 | 1 to 10 µM | Cc1cn(Cc2ccc(F)c(F)c2)c2c(-c3ccc(NS(C)(=O)=O)cc3)cc(F)cc12 [Compound B06, N-{4-[1-(3,4-Difluoro-benzyl)-5-fluoro-3-methyl-1H-indol-7-yl]-phenyl}-methanesulfonamide]
5 | 1 to 10 µM | Cc1cn(Cc2ccc(Cl)cc2Cl)c2c(-c3nnc(NC(=O)c4ccno4)o3)cc(F)cc12 [Compound B24, Isoxazole-5-carboxylic acid {5-[1-(2,4-dichloro-benzyl)-5-fluoro-3-methyl-1H-indol-7-yl]-[1,3,4]oxadiazol-2-yl}-amide]
6 | < 1 µM | Cc1cn(Cc2ccc(Cl)cc2Cl)c2c(-c3nnc(NC(=O)c4ccc(F)c(F)c4)o3)cc(F)cc12 [Compound B26, N-{5-[1-(2,4-Dichloro-benzyl)-5-fluoro-3-methyl-1H-indol-7-yl]-[1,3,4]oxadiazol-2-yl}-3,4-difluoro-benzamide]
7 | 1 to 10 µM | Cn1cc(Cc2ccc3ccccc3c2)c2c(-c3ccc(NS(=O)(=O)C(F)(F)F)cc3)cccc21 [Compound B08, C,C,C-Trifluoro-N-[4-(1-methyl-3-naphthalen-2-ylmethyl-1H-indol-4-yl)-phenyl]-methanesulfonamide]
8 | < 1 µM | Cc1cn(Cc2ccc(Cl)cc2Cl)c2c(-c3cc(NS(=O)(=O)c4cc(F)c(F)cc4F)no3)cc(F)cc12 [Compound B36, N-{5-[1-(2,4-Dichloro-benzyl)-5-fluoro-3-methyl-1H-indol-7-yl]-isoxazol-3-yl}-2,4,5-trifluoro-benzenesulfonamide]
9 | 1 to 10 µM | Cc1cn(Cc2ccc(Cl)cc2Cl)c2c(-c3nnc(NC(=O)c4ccc(F)cc4)o3)cc(F)cc12 [Compound B23, N-{5-[1-(2,4-Dichloro-benzyl)-5-fluoro-3-methyl-1H-indol-7-yl]-[1,3,4]oxadiazol-2-yl}-4-fluoro-benzamide]
10 | < 1 µM | Cc1cn(Cc2ccc(Cl)cc2Cl)c2c(-c3nnc(NC(=O)c4ccco4)o3)cc(F)cc12 [Compound B30, Furan-2-carboxylic acid {5-[1-(2,4-dichloro-benzyl)-5-fluoro-3-methyl-1H-indol-7-yl]-[1,3,4]oxadiazol-2-yl}-amide]
11 | < 1 µM | Cc1cn(Cc2ccc(Cl)cc2Cl)c2c(-c3nnc(NS(=O)(=O)c4cc(F)c(F)cc4F)o3)cc(F)cc12 [Compound B12, N-{5-[1-(2,4-Dichloro-benzyl)-5-fluoro-3-methyl-1H-indol-7-yl]-[1,3,4]oxadiazol-2-yl}-2,4,5-trifluoro-benzenesulfonamide]
12 | < 1 µM | Cc1cn(Cc2ccc(Cl)cc2Cl)c2c(-c3cc(NS(=O)(=O)c4ccc(Cl)c(Cl)c4)no3)cc(F)cc12 [Compound B37, 3,4-Dichloro-N-{5-[1-(2,4-dichloro-benzyl)-5-fluoro-3-methyl-1H-indol-7-yl]-isoxazol-3-yl}-benzenesulfonamide]
13 | > 10 µM | Cc1cn(Cc2ccc(Cl)cc2Cl)c2c(-c3ccc(NS(C)(=O)=O)cc3)cc(F)cc12 [Compound B09, N-{4-[1-(2,4-Dichloro-benzyl)-5-fluoro-3-methyl-1H-indol-7-yl]-phenyl}-methanesulfonamide]
14 | < 1 µM | Cc1cn(Cc2ccc(Cl)cc2Cl)c2c(-c3cc(NS(=O)(=O)c4cc(Cl)c(Cl)s4)no3)cc(F)cc12 [Compound B34, 4,5-Dichloro-thiophene-2-sulfonic acid {5-[1-(2,4-dichloro-benzyl)-5-fluoro-3-methyl-1H-indol-7-yl]-isoxazol-3-yl}-amide]
15 | < 1 µM | Cc1cn(Cc2ccc(Cl)cc2Cl)c2c(-c3nc(NS(=O)(=O)c4cc(Cl)c(Cl)s4)no3)cc(F)cc12 [Compound B42, 5-Dichloro-thiophene-2-sulfonic acid {5-[1-(2,4-dichloro-benzyl)-5-fluoro-3-methyl-1H-indol-7-yl]-[1,2,4]oxadiazol-3-yl}-amide]
16 | < 1 µM | Cc1cn(Cc2ccc(Cl)cc2Cl)c2c(-c3nnc(NC(=O)c4ccc5c(c4)OC(F)(F)O5)o3)cc(F)cc12 [Compound B29, 2,2-Difluoro-benzo[1,3]dioxole-5-carboxylic acid {5-[1-(2,4-dichloro-benzyl)-5-fluoro-3-methyl-1H-indol-7-yl]-[1,3,4]oxadiazol-2-yl}-amide]
17 | < 1 µM | Cc1cn(Cc2ccc(F)c(F)c2)c2c(-c3cc(NS(=O)(=O)c4cc(F)c(F)cc4F)no3)cc(F)cc12 [Compound B33, N-{5-[1-(3,4-Difluoro-benzyl)-5-fluoro-3-methyl-1H-indol-7-yl]-isoxazol-3-yl}-2,4,5-trifluoro-benzenesulfonamide]
18 | < 1 µM | Cc1cn(Cc2ccc(F)c(F)c2)c2c(-c3cc(NS(=O)(=O)c4ccc(F)c(F)c4)no3)cc(F)cc12 [Compound B32, N-{5-[1-(3,4-Difluoro-benzyl)-5-fluoro-3-methyl-1H-indol-7-yl]-isoxazol-3-yl}-3,4-difluoro-benzenesulfonamide]
19 | 1 to 10 µM | CC(=O)Nc1ccc(-c2cccc3c2c(Cc2ccc4ccccc4c2)cn3C)cc1 [Compound B17, N-[4-(1-Methyl-3-naphthalen-2-ylmethyl-1H-indol-4-yl)-phenyl]-acetamide]
20 | < 1 µM | Cn1cc(Cc2ccc3ccccc3c2)c2c(-c3cc(NS(=O)(=O)c4cc(Cl)c(Cl)s4)n[nH]3)cccc21 [Compound B01, 4,5-Dichloro-thiophene-2-sulfonic acid [5-(1-methyl-3-naphthalen-2-ylmethyl-1H-indol-4-yl)-1H-pyrazol-3-yl]-amide]
21 | < 1 µM | Cn1cc(-c2cc(NS(=O)(=O)c3ccc(F)c(F)c3)no2)c2c(Oc3ccc4ccccc4c3)cccc21 [Compound B45, 3,4-Difluoro-N-{5-[1-methyl-4-(naphthalen-2-yloxy)-1H-indol-3-yl]-isoxazol-3-yl}-benzenesulfonamide]
22 | < 1 µM | Cc1cn(Cc2ccc(Cl)cc2Cl)c2c(-c3nnc(NS(=O)(=O)c4ccc(F)c(F)c4)o3)cc(F)cc12 [Compound B19, N-{5-[1-(2,4-Dichloro-benzyl)-5-fluoro-3-methyl-1H-indol-7-yl]-[1,3,4]oxadiazol-2-yl}-3,4-difluoro-benzenesulfonamide]
23 | < 1 µM | Cc1cn(Cc2ccc(F)c(F)c2)c2c(-c3cc(NS(=O)(=O)c4cc(Cl)c(Cl)s4)no3)cc(F)cc12 [Compound B31, 4,5-Dichloro-thiophene-2-sulfonic acid {5-[1-(3,4-difluoro-benzyl)-5-fluoro-3-methyl-1H-indol-7-yl]-isoxazol-3-yl}-amide]
24 | < 1 µM | Cc1cn(Cc2ccc3ccccc3c2)c2c(-c3cc(NS(=O)(=O)c4cc(Cl)c(Cl)s4)no3)cc(F)cc12 [Compound B41]
25 | < 1 µM | Cc1cn(Cc2ccc(Cl)cc2Cl)c2c(-c3cc(NS(=O)(=O)c4ccc(F)c(F)c4)no3)cc(F)cc12 [Compound B35, N-{5-[1-(2,4-Dichloro-benzyl)-5-fluoro-3-methyl-1H-indol-7-yl]-isoxazo 1-3-yl}-3,4-difluoro-benzenesulfonamide]
26 | 1 to 10 µM | Cc1cn(Cc2ccc(Cl)cc2Cl)c2c(-c3nnc(NS(C)(=O)=O)o3)cc(F)cc12 [Compound B11, N-{5-[1-(2,4-Dichloro-benzyl)-5-fluoro-3-methyl-1H-indol-7-yl]-[1,3,4]oxadiazol-2-yl}-methanesulfonamide]
27 | < 1 µM | Cc1cn(Cc2ccc3ccccc3c2)c2c(-c3cc(NS(=O)(=O)c4ccc(F)c(F)c4)no3)cc(F)cc12 [Compound B38, 3,4-Difluoro-N-[5-(5-fluoro-3-methyl-1-naphthalen-2-ylmethyl-1H-indol-7-yl)-isoxazol-3-yl]-benzenesulfonamide]
28 | < 1 µM | COc1cccc(CN2C(=O)CC3(C)CCCC(c4csc(NS(=O)(=O)c5ccc(F)c(F)c5)n4)=C23)c1 (stereo not drawn) [Compound B47, 3,4-Difluoro-N-{4-[1-(3-methoxy-benzyl)-3a-methyl-2-oxo-2,3,3a,4,5,6-hexahydro-1H-indol-7-yl]-thiazol-2-yl}-benzenesulfonamide]
29 | 1 to 10 µM | Cn1cc(Cc2ccc3ccccc3c2)c2c(-c3cc(N)nn3S(=O)(=O)c3cc(Cl)c(Cl)s3)cccc21 [Compound B02, 1-(4,5-Dichloro-thiophene-2-sulfonyl)-5-(1-methyl-3-naphthalen-2-ylmethyl-1H-indol-4-yl)-1H-pyrazol-3-ylamine]

Row | SMILES | IC50
30 | Cn1cc(Cc2ccc3ccccc3c2)c2c(-c3ccc(NS(C)(=O)=O)cc3)cccc21 [Compound B05, N-[4-(1-Methyl-3-naphthalen-2-ylmethyl-1H-indol-4-yl)-phenyl]-methanesulfonamide] | 1 to 10 µM
